Measurements reported in patent US9408387B2, “Safening 6-amino-2-(substituted phenyl)-5-substituted-4-pyrimidinecarboxylate herbicide injury on cereal crops” (Dow AgroSciences LLC, priority 2009, dated 2016).

What was measured:
Format in all cases: in vivo
[1] = tested on: spring wheat (Triticum aestivum L; TRZAS); assay: Postemergence herbicidal safening in cereal crops, greenhouse, visual injury: spring wheat
Protocol: (§1) Evaluation of Postemergence Herbicidal Safening in Cereal Crops
(§2) Seeds of the desired test plant species were planted in Sun Gro MetroMix® 306 planting mixture, which typically has a pH of 6.0 to 6.8 and an organic matter content of about 30 percent, in plastic pots with a surface area of 103.2 square centimeters (cm^2). When required to ensure good germination and healthy plants, a fungicide treatment and/or other chemical or physical treatment was applied. The plants were grown for 7-36 days (d) in a greenhouse with an approximate 14-hour (h) photoperiod which was maintained at about 18° C. during the day and 17° C. during the night. Nutrients and water were added on a regular basis and supplemental lighting was provided with overhead metal halide 1000-Watt lamps as necessary. The plants were employed for testing when they reached the second or third true leaf stage.
(§3) Treatments consisted of the acids or esters of compounds 1-10 and cloquintocet-mexyl (CQC-M), fenchlorazole-ethyl, mefenpyr-diethyl alone and in combination. Weighed amounts of acid or methyl esters of the compounds of formula (I) were dissolved in a volume of 97:3 v/v acetone/dimethylsulfoxide (DMSO) to obtain concentrated solutions. […] The concentrated solutions of the test compound were diluted with the addition of an aqueous mixture containing acetone, water, isopropyl alcohol, DMSO, Agri-Dex crop oil concentrate, and Triton® X-77 surfactant in a 64.7:26.0:6.7:2.0:0.7:0.01 v/v ratio. Test compounds were diluted to the appropriate application rate with a dilution solution which was prepared by mixing the appropriate volume of 97:3 v/v acetone/DMSO and the appropriate volume of an aqueous mixture containing acetone, water, isopropyl alcohol, DMSO, Agri-Dex crop oil concentrate, and Triton® X-77 surfactant in a 64.7:26.0:6.7:2.0:0.7:0.01 v/v ratio. Compound requirements are based upon a 12 mL application volume at a rate of 187 liters per hectare (L/ha). The concentrated solutions of the safener were prepared following the same procedure. Weighed amounts of safener were dissolved in a volume of 97:3 v/v acetone/DMSO to obtain concentrated safener solutions.
(§4) Spray solutions of the herbicide safener and test compound mixtures were prepared by adding the concentrated solutions to the appropriate amount of dilution solution to form 12 mL spray solution with active ingredients in combinations.
(§5) Formulated compounds were applied to the plant material with an overhead Mandel track sprayer equipped with 8002E nozzles calibrated to deliver 187 L/ha over an application area of 0.503 square meters (m^2) at a spray height of 18 inches (43 centimeters (cm)) above average plant canopy. Control plants were sprayed in the same manner with the solvent blank.
(§6) The treated plants and control plants were placed in a greenhouse as described above and watered by sub-irrigation to prevent wash-off of the test compounds. After 20-22 d, the condition of the test plants as compared with that of the control plants was determined visually and scored on a scale of 0 to 100 percent where 0 corresponds to no injury and 100 corresponds to complete kill.
(§7) Colby's equation was used to determine the herbicidal effects expected from the mixtures (Colby, S. R. Calculation of the synergistic and antagonistic response of herbicide combinations. Weeds 1967, 15, 20-22.).
(§8) The following equation was used to calculate the expected activity of mixtures containing two active ingredients, A and B: Expected=A+B−(A×B/100)
(§9) A=observed efficacy of active ingredient A at the same concentration as used in the mixture.
(§10) B=observed efficacy of active ingredient B at the same concentration as used in the mixture.

[2] = tested on: AMARE; assay: Postemergence herbicidal activity, greenhouse, visual injury: AMARE; settings: 20-22 d
Protocol: as §1, §2, §3, §4, §5, §6, §7
The following equation was used to calculate the expected activity of mixtures containing two active ingredients, A and B: Expected=A+B−(A×B/100) […]

[3] = tested on: SASKR; assay: Postemergence herbicidal activity, greenhouse, visual injury: SASKR; settings: for SASKR Ob (visual injury): 20-22 d
Protocol: as §1, §2, §3, §4, §5, §6, §7, §8, §9, §10

[4] = tested on: wild pansy (Viola tricolor; VIOTR); assay: Postemergence herbicidal activity, greenhouse, visual injury: VIOTR
[5] = tested on: kochia (Kochia scoparia L; KCHSC); assay: Postemergence herbicidal activity, greenhouse, visual injury: kochia; settings: for KCHSC Ob (visual injury): 20-22 d
Protocol: as §1, §2, §3, §4, §5, §6, §7, §8, §9, §10

[6] = Compound 10 0, CQC-M 8.75 g ae/ha
[7] = Compound 10 0, CQC-M 17.5 g ae/ha
[8] = Compound 10 0, CQC-M 35 g ae/ha
[9] = Compound 10 0, CQC-M 70 g ae/ha
[10] = Compound 10 0, CQC-M 140 g ae/ha

CCCCCC(C)OC(=O)COc1ccc(Cl)c2cccnc12 (centres unmarked) [CQC-M, cloquintocet-mexyl, reference compound]
0%: pest or weed control at 0.547 g/ha ([1]; Triticum aestivum, post-emergence, 480 h, safener alone 0.547 g/ha, 20-22 d, read-out: TRZAS Ob (visual injury)) | pest or weed control at 2.1875 g/ha ([1]; Triticum aestivum, post-emergence, 480 h, safener alone 2.1875 g/ha, 20-22 d, read-out: TRZAS Ob (visual injury)) | pest or weed control at 8.75 g/ha ([1]; Triticum aestivum, post-emergence, 480 h, safener alone 8.75 g/ha, 20-22 d, read-out: TRZAS Ob (visual injury)) | pest or weed control at 35 g/ha ([1]; Triticum aestivum, post-emergence, 480 h, safener alone 35 g/ha, 20-22 d, read-out: TRZAS Ob (visual injury)) | pest or weed control at 140 g/ha ([1]; Triticum aestivum, post-emergence, 480 h, safener alone 140 g/ha, 20-22 d, read-out: TRZAS Ob (visual injury)) | TRZAS Ob (Observed values, % control) ([1]; in vivo) | AMARE Ob (visual injury) ([2]; safener alone 35 g/ha) | AMARE Ob (visual injury) ([2]; safener alone 70 g/ha) | AMARE Ob (visual injury) ([2]; safener alone 140 g/ha) | SASKR Ob (Observed values, % control) [3, 6] | SASKR Ob (Observed values, % control) [3, 7] | SASKR Ob (Observed values, % control) [3, 8] | SASKR Ob (Observed values, % control) [3, 9] | SASKR Ob (Observed values, % control) [3, 10] | SASKR Ob (visual injury) ([3]; safener alone 70 g/ha) | SASKR Ob (visual injury) ([3]; safener alone 140 g/ha) | VIOTR Ob (Observed values, % control) [4, 6] | VIOTR Ob (Observed values, % control) [4, 7] | VIOTR Ob (Observed values, % control) [4, 8] | VIOTR Ob (Observed values, % control) [4, 9] | VIOTR Ob (Observed values, % control) [4, 10] | KCHSC Ob (Observed values, % control) [5, 6] | KCHSC Ob (Observed values, % control) [5, 7] | KCHSC Ob (Observed values, % control) [5, 8] | KCHSC Ob (Observed values, % control) [5, 9] | KCHSC Ob (Observed values, % control) [5, 10] | KCHSC Ob (visual injury) ([5]; safener alone 8.75 g/ha) | KCHSC Ob (visual injury) ([5]; safener alone 70 g/ha) | KCHSC Ob (visual injury) ([5]; safener alone 140 g/ha)
